Reference: US20100130737A1, “Regulating Agent of GPR34 Receptor Function” (TAKEDA PHARMACEUTICAL COMPANY LIMITED, priority 2005, published 2010)
pIC50: −log10 of the molar value.

Tests used:
[1] = molecular target: human GPR34 (Homo sapiens, UniProt Q9UPC5); assay: Human GPR34 antagonist activity indicated by changes in intracellular calcium concentration (FLIPR); format: cell-based; parameters: expressed in transfected cells; host or cells: CHO cells (human GPR34CHO line) stably transfected with pCR3.1 human lung Gα16; conditions: CHO cells expressing human GPR34/Gα16, against 2 μM lysoPS final concentration, Fluo-3AM
Description: CHO cells expressing human GPR34/Gα were diluted to 3×10^4/100 μl in cell culture medium [nucleic acid-free Minimum Essential Alpha Medium (Invitrogen) containing 10% dialyzed fetal bovine serum (Invitrogen) 0.5 mg/ml Geneticin (Invitrogen), penicillin and streptomycin (Invitrogen)], dispensed 100 μl per well into a Black walled 96-well plate (Costar), and cultured overnight in a CO2 incubator. Changes in intracellular calcium concentration were measured with a FLIPR (Molecular Device) by the methods described below.
50 μg of Fluo-3AM (Dojindo) was dissolved in 21 μl of DMSO (Dojindo), an equal amount of 20% pluronic acid (Molecular Probes) was added and mixed, and this was added to 10.6 ml of assay buffer [prepared by adding 20 ml of 1 M HEPES (pH 7.4, Dojindo) to HBSS (Invitrogen), and then adding 10 ml of a solution obtained by dissolving 710 mg of Probenecid (Sigma) in 5 ml of 1 N NaOH and then adding and mixing 5 ml of the HBSS/HEPES solution)] with 105 μl of fetal bovine serum added thereto to prepare a fluorescent dye solution. The medium was removed from the cell plate, 100 μl per well of the fluorescent dye solution was immediately poured in, and the cells were cultured for 1 hour in a CO2 incubator to incorporate the fluorescent dye into the cells. After culture, the cells were washed with the aforementioned assay buffer. The compound was dissolved in DMSO (Wako Pure Chemical), diluted with DMSO as necessary, added to the aforementioned assay buffer to the target concentration and poured into the plate. To measure antagonist activity, 8 μM lysophosphatidyl serine (lysoPS, Alexis) solution (2 μM final concentration during reaction) was poured into the plate, which was set in the FLIPR. Following these preliminaries, the agonist effect was measured in the FLIPR by measuring changes in intracellular calcium concentration up to 180 seconds after addition of the sample, and after 200 seconds lysoPS was added and the antagonist effect was measured. In the case of the agonist effect, the EC50 value of the added compound was calculated from the dose reaction curve using changes in fluorescent strength from 0 to 180 seconds after the start of the reaction. In the case of the antagonist effect, the IC50 was calculated from the dose reaction curve using changes in maximum fluorescent strength after 200 to 380 seconds of reaction time. The data was analyzed using “GraphPad PRISM4”.

Chain of human GPR34 (Q9UPC5 whole entry): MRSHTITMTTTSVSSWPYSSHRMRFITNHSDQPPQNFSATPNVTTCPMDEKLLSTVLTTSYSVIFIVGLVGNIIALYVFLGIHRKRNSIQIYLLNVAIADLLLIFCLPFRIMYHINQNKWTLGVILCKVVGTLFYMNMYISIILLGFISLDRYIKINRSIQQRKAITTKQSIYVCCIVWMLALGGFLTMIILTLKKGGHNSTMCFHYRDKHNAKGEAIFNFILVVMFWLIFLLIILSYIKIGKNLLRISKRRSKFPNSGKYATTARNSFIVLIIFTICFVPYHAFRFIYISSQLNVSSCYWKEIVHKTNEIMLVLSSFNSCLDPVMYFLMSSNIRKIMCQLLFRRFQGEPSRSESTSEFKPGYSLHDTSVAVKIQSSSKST

SMILES | pIC50 [1] | melting point
O=C(N[C@@H](Cc1ccc(OCc2ccccc2)cc1)C(=O)O)c1cc2cc(C#Cc3ccccc3)ccc2s1 [Example C139, O-Benzyl-N-{[5-(phenylethynyl)-1-benzothiophene-2-yl]carbonyl}tyrosine] | ≥ 6.00 | 198 to 199 °C
Cc1c(C(=O)N[C@@H](Cc2ccc(OCc3ccccc3)cc2)C(=O)O)oc2ccc(-c3ccc(Cl)cc3)cc12 [Example C142, O-Benzyl-N-{[5-(4-chlorophenyl)-3-methyl1-benzofuran-2-yl]carbonyl}tyrosine] | ≥ 6.00 | 209 to 210 °C
O=C(N[C@@H](Cc1ccc(OCc2ccccc2)cc1)C(=O)O)c1nc2ccc(/C=C/c3ccccc3)cc2[nH]1 [Example C144, O-Benzyl-N-({6-[(E)-2-phenylethenyl]-1H-benzimidazol-2-yl)carbonyl)tyrosine] | ≥ 6.00 | 247 °C (dec.)
O=C(N[C@@H](Cc1ccc(OCc2ccccc2)cc1)C(=O)O)C1=Cc2ccc(-c3ccc(Cl)cc3)cc2SC1 [Example C145, O-Benzyl-N-{[7-(4-chlorophenyl)-2H-thiochromene-3-yl]carbonyl}tyrosine] | ≥ 6.00 | 225 to 227 °C
O=C(N[C@@H](Cc1ccc(OCc2ccccc2)cc1)C(=O)O)c1cc2cc(-c3ccc(Cl)cc3)ccc2[nH]c1=O [Example C146, O-Benzyl-N-{[6-(4-chlorophenyl)-2-oxo-1,2-dihydroquinolin-3-yl]carbonyl}tyrosine] | ≥ 6.00 | 298 to 299 °C
Nc1c(C(=O)N[C@@H](Cc2ccc(OCc3ccccc3)cc2)C(=O)O)oc2cc(-c3ccc(Cl)cc3)ccc12 [Example C147, N-{[3-Amino-6-(4-chlorophenyl)-1-benzofuran-2-yl]carbonyl}-O-benzyltyrosine] | ≥ 6.00 | 250 °C (dec.)
O=C(N[C@@H](Cc1ccc(OCc2cccc(F)c2)cc1)C(=O)O)c1cc2ccc(-c3ccc(Cl)cc3)cc2o1 [Example C153, N-{[6-(4-Chlorophenyl)-1-benzofuran-2-yl]carbonyl}-O-(3-fluorobenzyl)tyrosine] | ≥ 6.00 | 162 to 163 °C
O=C(N[C@@H](Cc1ccc(OCc2ccccc2)cc1)C(=O)O)c1nc2ccc(-c3ccc(Cl)cc3)cc2[nH]1 [Example C167, O-Benzyl-N-{[6-(4-chlorophenyl)-1H-benzimidazol-2-yl]carbonyl}tyrosine] | ≥ 6.00 | 260 to 261 °C
O=C(/C=C/c1cccc(-c2ccc(Cl)cc2)c1)N[C@@H](Cc1ccc(OCc2ccccc2)cc1)C(=O)O [Example D1, O-Benzyl-N-[(2E)-3-(4′-chlorobiphenyl-3-yl)propa-2-enoyl]tyrosine] | ≥ 6.00 | 194 to 195 °C
O=C(/C=C/c1ccc(-c2ccc(Cl)cc2)cc1)N[C@@H](Cc1ccc(OCc2ccccc2)cc1)C(=O)O [Example D2, O-Benzyl-N-[(2E)-3-(4′-chlorobiphenyl-4-yl)propa-2-enoyl]tyrosine] | ≥ 6.00 | 253 to 254 °C
O=C(N[C@@H](Cc1ccc(OCc2ccccc2)cc1)C(=O)O)c1cn2cc(-c3ccc(Cl)cc3)ccc2n1 [Example E1, O-Benzyl-N-{[6-(4-chlorophenyl)imidazo[1,2-a]pyridin-2-yl]carbonyl}tyrosine] | ≥ 6.00 | 270 to 271 °C
O=C(N[C@@H](Cc1ccc(OCc2ccccc2)cc1)C(=O)O)c1cn2nc(-c3ccc(Cl)cc3)ccc2n1 [Example E3, O-Benzyl-N-{[6-(4-chlorophenyl)imidazo[1,2-b]pyridazin-2-yl]carbonyl}tyrosine] | ≥ 6.00 | 242 to 243 °C
O=C(N[C@@H](Cc1ccc(NCc2ccccc2)cc1)C(=O)O)c1cn2cc(-c3ccc(Cl)cc3)ccc2n1 [Example E5, 4-(Benzylamino)-N-([6-(4-chlorophenyl)imidazo[1,2-a]pyridin-2-yl]carbonyl}phenylalanine] | ≥ 6.00 | 260 °C
O=C(N[C@@H](Cc1ccc(OCc2ccccc2)cc1)C(=O)O)c1cn2c(-c3ccc(Cl)cc3)cccc2n1 [Example E9, O-Benzyl-N-{[5-(4-chlorophenyl)imidazo[1,2-a]pyridin-2-yl]carbonyl}tyrosine] | ≥ 6.00 | 218 °C
CN(C(=O)c1cn2cc(-c3ccc(Cl)cc3)ccc2n1)[C@@H](Cc1ccc(OCc2ccccc2)cc1)C(=O)O [Example E12, O-Benzyl-N-{[6-(4-chlorophenyl)imidazo[1,2-a]pyridin-2-yl]carbonyl}-N-methyltyrosine] | ≥ 6.00 | 216 °C
O=C(N[C@@H](Cc1ccc(OCc2ccccc2)cc1)C(=O)O)c1cc2nccc(-c3ccc(Cl)cc3)n2n1 [Example E16, O-Benzyl-N-{[7-(4-chlorophenyl)pyrazolo[1,5-a]pyrimidin-2-yl]carbonyl}tyrosine] | ≥ 6.00 | 102 to 103 °C
O=C(N[C@@H](Cc1ccc(OCc2ccccc2)cc1)C(=O)O)c1cn2cc(-c3ccccc3F)ccc2n1 [Example E19, O-Benzyl-N-{[6-(2-fluorophenyl)imidazo[1,2-a]pyridin-2-yl]carbonyl}tyrosine] | ≥ 6.00 | 238 °C
O=C(N[C@@H](Cc1ccc(OCc2ccccc2)cc1)C(=O)O)c1cn2nc(C#Cc3ccccc3)ccc2n1 [Example E22, O-Benzyl-N-{[6-(phenylethynyl)imidazo[1,2-b]pyridazin-2-yl]carbonyl}tyrosine] | ≥ 6.00 | 224 to 227 °C
CS(=O)(=O)NC(=O)[C@H](Cc1ccc(OCc2ccccc2)cc1)NC(=O)c1cn2cc(-c3ccc(Cl)cc3)ccc2n1 [Example E23, O-Benzyl-Nα-{[6-(4-chlorophenyl)imidazo[1,2-a]pyridin-2-yl]carbonyl}-N-(methylsulfonyl)tyrosinamide] | ≥ 6.00 | 232 °C

More lines, now with the values ahead:

pIC50 [1] | melting point | SMILES
≥ 6.00 | 237 to 239 °C | O=C(N[C@@H](Cc1ccc(OCc2ccccc2)cc1)C(=O)O)c1cc2ccc(-c3ccc(Cl)cc3)cc2s1 [Example C122, O-Benzyl-N-{[6-(4-chlorophenyl)-1-benzothiophene-2-yl]carbonyl}tyrosine]
≥ 6.00 | 206 to 207 °C | O=C(N[C@@H](Cc1ccc(OCc2ccccc2)cc1)C(=O)O)c1cc2cc(-c3ccc(Cl)cc3)ccc2s1 [Example C123, O-Benzyl-N-{[5-(4-chlorophenyl)-1-benzothiophene-2-yl]carbonyl}tyrosine]
≥ 6.00 | 170 to 171 °C | O=C(N[C@@H](Cc1ccc(OCc2ccccc2)cc1)C(=O)O)c1cc2ccc(-c3ccc(Cl)cc3)cc2o1 [Example C143, O-Benzyl-N-{[6-(4-chlorophenyl)-1-benzofuran-2-yl]carbonyl}tyrosine]
≥ 6.00 | 250 to 251 °C | O=C(N[C@@H](Cc1ccc(OCc2ccccc2)cc1)C(=O)O)c1cc2cc(-c3ccc(Cl)cc3)ccc2o1 [Example C148, O-Benzyl-N-{[5-(4-chlorophenyl)-1-benzofuran-2-yl]carbonyl}tyrosine]
≥ 6.00 | 202 to 204 °C | O=C(N[C@@H](Cc1ccc(OCc2ccccc2)cc1)C(=O)O)c1cc2ccc(-c3ccc(Cl)cc3)cc2[nH]1 [Example C163, O-Benzyl-N-{[6-(4-chlorophenyl)-1H-indol-2-yl]carbonyl}tyrosine]
≥ 6.00 | 205 to 206 °C | Cn1c(C(=O)N[C@@H](Cc2ccc(OCc3ccccc3)cc2)C(=O)O)cc2ccc(-c3ccc(Cl)cc3)cc21 [Example C164, O-Benzyl-N-{[6-(4-chlorophenyl)-1-methyl-1H-indole-2-yl]carbonyl}tyrosine]
≥ 6.00 | 239 to 240 °C | O=C(N[C@@H](Cc1ccc(OCc2ccccc2)cc1)C(=O)O)c1cc2cc(-c3ccc(Cl)cc3)ccc2[nH]1 [Example C165, O-Benzyl-N-{[5-(4-chlorophenyl)-1H-indol-2-yl]carbonyl}tyrosine]
≥ 6.00 | 238 to 239 °C | Cn1c(C(=O)N[C@@H](Cc2ccc(OCc3ccccc3)cc2)C(=O)O)cc2cc(-c3ccc(Cl)cc3)ccc21 [Example C166, O-Benzyl-N-{[5-(4-chlorophenyl)-1-methyl-1H-indol-2-yl]carbonyl}tyrosine]
